Results reported in article PMC10258794, “To Fold or Not to Fold: Diastereomeric Optimization of an α-Helical Antimicrobial Peptide” (Journal of Medicinal Chemistry, 2023).
Converted amounts (≈) assume the structure as drawn. Read-outs that look alike come from different tables or passages of the source. Non-standard residues stand in square brackets, D forms with d. No end group written: not given here.

B1: FHP30 (peptide)
peptide: {α‑L‑fucosyl‑acetyl}-K[dK]L[dL]K[dL]L[dK]L[dL]L
notes: also called fucosylated analogue of HP30; source: synthetic peptide (Fmoc solid-phase synthesis on Tentagel S RAM resin, preparative RP-HPLC)

Tests used:
[1] = 24 h, […] human serum in TRIS buffer pH 7.4, 37 °C
Experimental: Human serum was diluted in 0.1 M filtered TRIS buffer (pH 7.4) (25%, 1:3, v/v). Selected peptides were diluted in 0.1 M filtered TRIS buffer (pH 7.4) to a concentration of 400 μM, and 0.1 mg/mL 4- hydroxybenzoic acid was added as an internal standard. Aliquots of peptide solution (50 μL) were added to aliquots of serum (50 μL) in sterile Eppendorf tubes, to reach a peptide concentration of 200 μM during the assay. Samples were incubated at 37 °C under gentle stirring (350 rpm). Different samples (triplicates) were quenched at different time points (0/1/6/12/24 h) by precipitating serum proteins through the addition of ZnSO4·7 H2O/ACN (1:1) (0.1 M, 100 μL) and cooling in ice bath for 10 min. Protein precipitates were pelleted under centrifugation, and supernatants were then sampled and analyzed by LC–MS. Experiment controls included two references, one known to be degraded and one known to be undegraded. Peaks corresponding to the internal standard and the undegraded peptides were integrated, with the ratio peptide/standard at t = 0 h as 100%.

PA14 4.13 (phoQ) = assay: microbe, parasite or virus in culture; conditions: supplementary CSV
Outline: (§1)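 A colony was grown overnight in LB at 37 °C, diluted in MH medium pH 7.4 to OD600 0.022 and added to 1/2 serial dilutions of compound (final about 5 × 10^5 CFU).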

PA14 2P4 (pmrB) = assay: microbe, parasite or virus in culture; conditions: supplementary CSV
Outline: as §1

Burkolderia cenocepacia = assay: microbe, parasite or virus in culture; conditions: for MIC Burkolderia cenocepacia: MDR strain, MH broth pH 7.4, 16–20 h, 37 °C; for MIC B. cenocepacia: supplementary CSV
Enterobacter cloacae = assay: microbe, parasite or virus in culture; conditions: pH 7.4
Outline: as §1

P. aeruginosa ZEM-1A = assay: microbe, parasite or virus in culture; conditions: pH 7.4
Outline: as §1

P. aeruginosa PA14 = assay: microbe, parasite or virus in culture; conditions: for MIC PA14: MH broth pH 7.4, 16–20 h, 37 °C; for MIC P. aeruginosa PA14: supplementary CSV
Outline: as §1

PA14 4.18 (pmrB) = assay: microbe, parasite or virus in culture; conditions: supplementary CSV
Outline: as §1

P. aeruginosa PAO1 [2] = assay: Time-killing kinetic assay; assay type: cell-based, Pseudomonas aeruginosa; conditions: P. aeruginosa PAO1, 4 × MIC, pH 7.4
Experimental: A single colony of P. aeruginosa PAO1 was picked and grown overnight with shaking (180 rpm) in LB (Sigma-Aldrich, Buchs, Switzerland) medium 5 mL overnight at 37 °C. The overnight bacterial culture was diluted to OD600 0.002 (2 × 10^6 CFU/mL) in fresh MH medium. Stock solutions of AMPs in sterilized milliQ water were prepared in 1 mg/mL and were diluted to two times more than required concentration in fresh MH (Sigma-Aldrich, Buchs, Switzerland) medium at pH 7.4. 100 μL of prepared bacteria solution in MH and 100 μL of samples in MH were mixed in a 96-well microtiter plate (TPP, untreated, Corning Incorporated, Kennebunk, USA). Untreated bacteria at 1 × 10^6 CFU/mL were used as a growth control. 96-well microtiter plates were incubated in 37 °C with shaking (180 rpm). Surviving bacteria were quantified at 0, 0.5, 1, 2, 3, 4, 5, and 6 h by plating 10-fold dilutions of the sample in sterilized normal saline on LB agar plates. LB agar plates were incubated at 37 °C for 10 h, and the number of individual colonies was counted at each timepoint. The assay was performed in triplicate in the biosafety level 2 lab.

A549 cells = assay: Alamar blue cytotoxicity, A549; assay type: cell-based, human; conditions: 24 h, mean ± SD, n = 3, read-out: Toxicity on A549 lung cancern cells
Experimental: The A549 human lung adenocarcinoma cells are derived from a patient and were kindly given to us by Dr. Georgia Konstatinidou (Pharmacology Institute, Bern University). HEK293T cells were obtained from ATCC (CRL-11268). A549 and HEK293 were cultured in an incubator at 37 °C with 5% CO2 in RPMI-1640 (Gibco) and DMEM (Gibco) containing 10% fetal bovine serum (Thermo Fisher), 100 I.U./mL penicillin, and 100 μg/mL streptomycin (Gibco).
The viability of the cells was assessed with an AlamarBlue assay (ThermoFisher). Cells were seeded into 96-well plates, 4000 cells/well (HEK293) and 8000 cells/well (A549), the day before the experiment. Cells were then treated with the increasing concentration of the compound and incubated for 24 h at 37 °C in the presence of 5% CO2. The next day, the medium was removed and replaced by a 10% AlamarBlue solution in full growth medium (DMEM or RPMI-1640). The cells were incubated for 3–5 h at 37 °C with 5% CO2 in a humidified atmosphere. The fluorescence was then measured on a Tecan Infinite M1000 Pro plate reader at λex 560 nm and λem 590 nm. The value was normalized according to the untreated cells.

K. pneumoniae Oxa-48 = assay: MIC broth microdilution, K. pneumoniae Oxa-48; assay type: cell-based, Klebsiella pneumoniae; conditions: MDR strain; MH broth pH 7.4, 16–20 h, 37 °C
Outline: as §1

[3] = test system: Pseudomonas aeruginosa, Klebsiella pneumoniae, Acinetobacter baumannii, Escherichia coli, and methicillin-resistant Staphylococcus aureus; conditions: summary of Table 1
Outline: as §1

K. pneumoniae NCTC418 = test system: K. pneumoniae NCTC418
Outline: as §1

P. aeruginosa PAO1 [4] = test system: P. aeruginosa PAO1
Outline: as §1

E. coli W3110 = test system: E. coli W3110
Outline: as §1

S. aureus COL MRSA = conditions: for MIC S. aureus COL MRSA: MH broth pH 7.4, 16–20 h, 37 °C; for MIC S. aureus COL: supplementary CSV, ranges of Table 1 given as one number
Outline: as §1

A. baumannii ATCC19606 = test system: A. baumannii ATCC19606
Outline: as §1

Staphylococcus epidermis = assay: MIC broth microdilution, Staphylococcus epidermis; assay type: cell-based; conditions: for MIC Staphylococcus epidermis: pH 7.4
Outline: as §1

HEK293 cells = assay: Alamar blue cytotoxicity, HEK293; assay type: cell-based, human; conditions: 24 h, mean ± SD, n = 3, read-out: Toxicity on HEK293 cells
Outline: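 Cells seeded 4000/well (HEK293, DMEM) or 8000/well (A549, RPMI-1640) with 10% FBS, then exposed to increasing compound concentrations for 24 h at 37 °C, 5% CO2. AlamarBlue (10%) added for 3–5 h; fluorescence ex 560/em 590 nm, normalized to untreated cells.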

S. aureus Newman [5] = conditions: for MIC S. aureus Newman: MH broth pH 7.4, 16–20 h, 37 °C; for MIC S. aureus Newmann: supplementary CSV
P. aeruginosa ZEM9A = assay: microbe, parasite or virus in culture; assay type: cell-based, Pseudomonas aeruginosa; conditions: pH 7.4
Outline: as §1

[6] = test system: Stenotrophomonas maltophilia; assay: microbe, parasite or virus in culture; assay type: cell-based; conditions: pH 7.4
Outline: as §1

S. aureus Newman [7] = assay: microbe, parasite or virus in culture; conditions: Staphylococcus aureus, pH 7.4, read-out: MIC S. aureus Newman
[8] = target: the molecule itself; assay: crystal structure; co-crystallisation of the C-fucosylated peptide with LecB, sitting drop vapor diffusion, 18 °C; LecB 5 mg/mL in water with 6 mM CaCl2 and MgCl2; peptide at 5:1 molar excess over the LecB monomer
[9] = MH broth pH 7.4, 16–20 h, 37 °C
[10] = supplementary CSV, ranges of Table 1 given as one number

| Molecule | serum stability [1] | MIC P. aeruginosa PA14 4.13 (PA14 4.13 (phoQ)) [µg/mL] | MIC P. aeruginosaPA14 2P4 (PA14 2P4 (pmrB)) [µg/mL] | MIC Burkolderia cenocepacia (Burkolderia cenocepacia) [µg/mL] | MIC B. cenocepacia (Burkolderia cenocepacia) [µg/mL] | MIC Enterobacter cloacae (Enterobacter cloacae) [µg/mL] | MIC ZEM-1A (P. aeruginosa ZEM-1A) [µg/mL] | MIC PA14 (P. aeruginosa PA14) [µg/mL] | MIC P. aeruginosa PA14 (P. aeruginosa PA14) [µg/mL] | MIC P. aeruginosa PA14 4.18 (PA14 4.18 (pmrB)) [µg/mL] | IC50 (A549 cells) [µM] | MIC K. pneumoniae Oxa-48 (K. pneumoniae Oxa-48) [µg/mL] | MIC K. pneumoniae NCTC418 (K. pneumoniae NCTC418; [9]) [µg/mL] | MIC K. pneumoniae NCTC418 (K. pneumoniae NCTC418; [10]) [µg/mL] | MIC P. aeruginosa PAO1 (P. aeruginosa PAO1 [4]; [9]) [µg/mL] | MIC P. aeruginosa PAO1 (P. aeruginosa PAO1 [4]; [10]) [µg/mL] | MIC E. coli W3110 (E. coli W3110; [9]) [µg/mL] | MIC S. aureus COL MRSA (S. aureus COL MRSA) [µg/mL] | MIC S. aureus COL (S. aureus COL MRSA) [µg/mL] | MIC A. baumannii ATCC19606 (A. baumannii ATCC19606; [9]) [µg/mL] | further results |
| --- | --- | --- | --- | --- | --- | --- | --- | --- | --- | --- | --- | --- | --- | --- | --- | --- | --- | --- | --- | --- | --- |
| CC(C)C[C@H](NC(=O)[C@H](CCCCN)NC(=O)[C@H](N)CCCCN)C(=O)N[C@@H](CC(C)C)C(=O)N[C@@H](CCCCN)C(=O)N[C@@H](CC(C)C)C(=O)N[C@@H](CC(C)C)C(=O)N[C@@H](CCCCN)C(=O)N[C@@H](CC(C)C)C(=O)N[C@@H](CC(C)C)C(=O)N[C@H](CC(C)C)C(N)=O [HP5] | entirely stabilize | 4 (≈ 3.03 µM) | 32 (≈ 24.2 µM) | >64 | > 64 | 2 (≈ 1.51 µM) | 2 (≈ 1.51 µM) | 2 (≈ 1.51 µM) | 2 (≈ 1.51 µM) | 16 (≈ 12.1 µM) | 18.9 ± 3.6 | 2 (≈ 1.51 µM) | 2 (≈ 1.51 µM) | 2 (≈ 1.51 µM) | 2 (≈ 1.51 µM) | 2 (≈ 1.51 µM) | 0.5 (≈ 0.378 µM) | 2 (≈ 1.51 µM) | 2 (≈ 1.51 µM) | 0.5 (≈ 0.378 µM) | time to complete killing of bacteria (P. aeruginosa PAO1 [2]): ≤ 1 h; MIC, span over the five bacterial strains [3]: 0.5 to 4 µg/mL; MIC Staphylococcus epidermis (Staphylococcus epidermis): 2 µg/mL (≈ 1.51 µM); IC50 (HEK293 cells): 93.2 ± 0.1 µM; MIC S. aureus Newman (S. aureus Newman [5]): 2 µg/mL (≈ 1.51 µM); MIC S. aureus Newmann (S. aureus Newman [5]): 2 µg/mL (≈ 1.51 µM); MIC ZEM9A (P. aeruginosa ZEM9A): 4 µg/mL (≈ 3.03 µM); MIC Stenotrophomonas maltophilia [6]: 2 µg/mL (≈ 1.51 µM) |
| CN[C@H](CC(C)C)C(=O)N[C@H]1C(=O)N[C@@H](CC(N)=O)C(=O)N[C@H]2C(=O)N[C@H]3C(=O)N[C@H](C(=O)N[C@H](C(=O)O)c4cc(O)cc(O)c4-c4cc3ccc4O)[C@H](O)c3ccc(c(Cl)c3)Oc3cc2cc(c3O[C@@H]2O[C@H](CO)[C@@H](O)[C@H](O)[C@H]2O[C@H]2C[C@](C)(N)[C@H](O)[C@H](C)O2)Oc2ccc(cc2Cl)[C@H]1O [Vancomycin, vancomycin, reference compound] |  |  |  |  |  |  |  |  |  |  |  |  |  |  |  |  |  |  |  |  | MIC (S. aureus Newman [7]): 0.5 µg/mL (≈ 0.345 µM); MIC (Staphylococcus epidermis; Staphylococcus, pH 7.4, read-out: MIC Staphylococcus epidermis): 0.5 µg/mL (≈ 0.345 µM) |
| CC(C)C[C@@H](NC(=O)[C@@H](CC(C)C)NC(=O)[C@@H](CC(C)C)NC(=O)[C@H](CCCCN)NC(=O)[C@@H](CC(C)C)NC(=O)[C@@H](CC(C)C)NC(=O)[C@H](CCCCN)NC(=O)[C@@H](CC(C)C)NC(=O)[C@@H](CC(C)C)NC(=O)[C@H](CCCCN)NC(=O)[C@@H](N)CCCCN)C(N)=O [dln69, KKllKllKlll] | entirely degraded | 2 (≈ 1.51 µM) | 16 (≈ 12.1 µM) | >64 | > 64 | 4 (≈ 3.03 µM) | 4 (≈ 3.03 µM) | 1 (≈ 0.757 µM) | 1 (≈ 0.757 µM) | 8 (≈ 6.05 µM) | 7.2 ± 6.5 | 8 (≈ 6.05 µM) | 4 (≈ 3.03 µM) | 4 (≈ 3.03 µM) | 2 to 4 | 3 (≈ 2.27 µM) | 0.5 to 1 | 2 (≈ 1.51 µM) | 2 (≈ 1.51 µM) | 2 (≈ 1.51 µM) | MIC E. coli W3110 (E. coli W3110; [10]): 1 µg/mL (≈ 0.757 µM); MIC A. baumannii ATCC19606 (A. baumannii ATCC19606; [10]): 2 µg/mL (≈ 1.51 µM); MIC Staphylococcus epidermis (Staphylococcus epidermis): 4 µg/mL (≈ 3.03 µM); IC50 (HEK293 cells): 87 ± 2 µM; MIC S. aureus Newman (S. aureus Newman [5]): 1 µg/mL (≈ 0.757 µM); MIC S. aureus Newmann (S. aureus Newman [5]): 1 µg/mL (≈ 0.757 µM); MIC ZEM9A (P. aeruginosa ZEM9A): 8 µg/mL (≈ 6.05 µM); MIC Stenotrophomonas maltophilia [6]: 2 µg/mL (≈ 1.51 µM) |
| B1 |  |  |  |  |  |  |  |  |  |  |  |  |  |  |  |  |  |  |  |  | stoichiometry N [8]: 4 |
